# Source: patent US12708116B2, “Herbicidal compositions comprising 2,4-D” (BASF SE, priority 2023, dated 2026)
# What was measured:
# Assay in all cases: Post-emergence application in field trials
# CYPES = conditions: 21 DAT, water volume 140 l/ha
# ECHCG = format: in vivo, Echinochloa crus-galli
# HORVW = conditions: growth stage 23-29, height 20-25 cm
# AMAPA = tested on: AMAPA
# SETVE = conditions: growth stage 21-23
# AMATU = format: in vivo, Amaranthus tuberculatos; conditions: 8 DAT; g ai/ha A-1 12.5, B-5 1066; growth stage 19; height 10-20 cm; water volume 140 l/ha
# SETVI = format: in vivo, Setaria viridis; conditions: 15 DAT; g ai/ha A-1 12.5, B-5 1066, C-10 840; growth stage 13-19; height 2-18 cm; water volume 140 l/ha
# AMARE = format: in vivo, Amaranthus retroflexus; conditions: 8 DAT; g ai/ha A-1 25, B-5 1066; growth stage 19; height 10-20 cm; water volume 140 l/ha
# ZEAMX = conditions: growth stage 15-16
# PORPI = format: in vivo; conditions: 8 DAT; g ai/ha A-1 25, B-5 1066; height 2-8 cm; water volume 140 l/ha
# DATST = tested on: DATST
# GLXMA = format: in vivo, Glycine max; conditions: Example 4; 21 DAT; g ai/ha A-1 12.5, B-5 1066; growth stage 13; height 5-8 cm
# DIGSA = tested on: DIGSA
smiles,measurement,setting,value
"C[N+](C)(C)CCO.O=C([O-])COc1ccc(Cl)cc1Cl [B-5, 2,4-D choline]",% Herbicidal activity,"CYPES; g ai/ha A-1 12.5, B-5 1066, C-11 655",0%
same,% Herbicidal activity,"CYPES; g ai/ha A-1 50, B-5 1066, C-11 655",0%
same,% Herbicidal activity,"CYPES; g ai/ha A-1 50, B-5 1066",0%
same,% Herbicidal activity,"ECHCG; 13 DAT, g ai/ha A-1 12.5, B-5 1066, C-10 840, growth stage 21-26, height 15-30 cm, water volume 187 l/ha",0%
same,% Herbicidal activity,"ECHCG; 13 DAT, g ai/ha A-1 25, B-5 1066, C-10 840, growth stage 21-26, height 15-30 cm, water volume 187 l/ha",0%
same,% Herbicidal activity,"ECHCG; 13 DAT, g ai/ha A-1 50, B-5 1066, C-10 840, growth stage 21-26, height 15-30 cm, water volume 187 l/ha",0%
same,% Herbicidal activity,"ECHCG; Example 4, 21 DAT, g ai/ha A-1 12.5, B-5 1066, growth stage 23-30, height 15-20 cm",0%
same,% Herbicidal activity,"ECHCG; Example 6, 7 DAT, g ai/ha A-1 12.5, B-5 1066, C-11 400, growth stage 23-30, height 15-20 cm",0%
same,% Herbicidal activity,"ECHCG; Example 6, 28 DAT, g ai/ha A-1 12.5, B-5 1066, C-11 400, growth stage 23-30, height 15-20 cm",0%
same,% Herbicidal activity,"ECHCG; Example 8, 7 DAT, g ai/ha A-1 12.5, B-5 1066, C-12 252, growth stage 23-30, height 15-20 cm",0%
same,% Herbicidal activity,"ECHCG; Example 8, 21 DAT, g ai/ha A-1 12.5, B-5 1066, C-12 252, growth stage 23-30, height 15-20 cm",0%
same,% Herbicidal activity,"ECHCG; Example 8, 28 DAT, g ai/ha A-1 12.5, B-5 1066, C-12 252, growth stage 23-30, height 15-20 cm",0%
same,% Herbicidal activity,"ECHCG; Example 10, 21 DAT, g ai/ha A-1 12.5, B-5 1066, C-4 12.5, growth stage 23-30, height 15-20 cm",0%
same,% Herbicidal activity,"HORVW; Example 4, 21 DAT, g ai/ha A-1 12.5, B-5 1066",0%
same,% Herbicidal activity,"HORVW; Example 6, 28 DAT, g ai/ha A-1 12.5, B-5 1066, C-11 400",0%
same,% Herbicidal activity,"HORVW; Example 8, 21 DAT, g ai/ha A-1 12.5, B-5 1066, C-12 252",0%
same,% Herbicidal activity,"HORVW; Example 10, 21 DAT, g ai/ha A-1 12.5, B-5 1066, C-4 12.5",0%
same,% Herbicidal activity,"AMAPA; 13 DAT, g ai/ha A-1 25, B-5 1066, growth stage 16, height 15-25 cm, water volume 187 l/ha",53%
same,% Herbicidal activity,"AMAPA; 14 DAT, g ai/ha A-1 12.5, B-5 1066, C-10 840, growth stage 12-24, height 5-30 cm, water volume 140 l/ha",66%
same,% Herbicidal activity,"AMAPA; 14 DAT, g ai/ha A-1 25, B-5 1066, C-10 840, growth stage 12-24, height 5-30 cm, water volume 140 l/ha",66%
same,% Herbicidal activity,"AMAPA; 19 DAT, g ai/ha A-1 12.5, B-5 1066, growth stage 16, height 15-25 cm, water volume 187 l/ha",55%
same,% Herbicidal activity,"AMAPA; 19 DAT, g ai/ha A-1 25, B-5 1066, growth stage 16, height 15-25 cm, water volume 187 l/ha",55%
same,% Herbicidal activity,"AMAPA; 19 DAT, g ai/ha A-1 50, B-5 1066, growth stage 16, height 15-25 cm, water volume 187 l/ha",55%
same,% Herbicidal activity,"AMAPA; 21 DAT, g ai/ha A-1 12.5, B-5 1066, growth stage 12-28, height 7-20 cm, water volume 140 l/ha",63%
same,% Herbicidal activity,"AMAPA; 21 DAT, g ai/ha A-1 50, B-5 1066, height 5-23 cm, water volume 140 l/ha",78%
same,% Herbicidal activity,"SETVE; Example 4, 21 DAT, g ai/ha A-1 12.5, B-5 1066, height 8-16 cm",25%
same,% Herbicidal activity,"SETVE; Example 6, 7 DAT, g ai/ha A-1 12.5, B-5 1066, C-11 400, height 10-15 cm",15%
same,% Herbicidal activity,"SETVE; Example 6, 21 DAT, g ai/ha A-1 12.5, B-5 1066, C-11 400, height 10-15 cm",0%
same,% Herbicidal activity,AMATU,83%
same,% Herbicidal activity,SETVI,27%
same,% Herbicidal activity,AMARE,83%
same,% Herbicidal activity,"ZEAMX; Example 4, 7 DAT, g ai/ha A-1 18, B-5 1066, height 50-60 cm",7%
same,% Herbicidal activity,"ZEAMX; Example 4, 21 DAT, g ai/ha A-1 12.5, B-5 1066, height 50-60 cm",10%
same,% Herbicidal activity,"ZEAMX; Example 6, 7 DAT, g ai/ha A-1 12.5, B-5 1066, C-11 400, height 25-30 cm",0%
same,% Herbicidal activity,"ZEAMX; Example 6, 28 DAT, g ai/ha A-1 12.5, B-5 1066, C-11 400, height 50-60 cm",0%
same,% Herbicidal activity,"ZEAMX; Example 8, 28 DAT, g ai/ha A-1 12.5, B-5 1066, C-12 252, height 50-60 cm",0%
same,% Herbicidal activity,PORPI,50%
same,% Herbicidal activity,"DATST; Example 4, 7 DAT, g ai/ha A-1 12.5, B-5 1066",35%
same,% Herbicidal activity,"DATST; Example 6, 21 DAT, g ai/ha A-1 12.5, B-5 1066, C-11 400",40%
same,% Herbicidal activity,GLXMA,55%
same,% Herbicidal activity,"DIGSA; 14 DAT, g ai/ha A-1 12.5, B-5 1066, height 2-8 cm, water volume 140 l/ha",0%
same,% Herbicidal activity,"DIGSA; 14 DAT, g ai/ha A-1 25, B-5 1066, height 2-8 cm, water volume 140 l/ha",0%
same,% Herbicidal activity,"DIGSA; 14 DAT, g ai/ha A-1 50, B-5 1066, height 2-8 cm, water volume 140 l/ha",0%
same,% Herbicidal activity,"DIGSA; 15 DAT, g ai/ha A-1 12.5, B-5 1066, C-10 840, growth stage 13-19, height 2-13 cm, water volume 140 l/ha",27%
same,% Herbicidal activity,"DIGSA; 21 DAT, g ai/ha A-1 12.5, B-5 1066, C-11 655, height 2-8 cm, water volume 140 l/ha",0%
same,% Herbicidal activity,"DIGSA; 21 DAT, g ai/ha A-1 12.5, B-5 1066, height 2-8 cm, water volume 140 l/ha",0%
same,% Herbicidal activity,"DIGSA; 21 DAT, g ai/ha A-1 25, B-5 1066, C-11 655, height 2-8 cm, water volume 140 l/ha",0%
same,% Herbicidal activity,"DIGSA; 21 DAT, g ai/ha A-1 25, B-5 1066, height 2-8 cm, water volume 140 l/ha",0%
same,% Herbicidal activity,"DIGSA; 21 DAT, g ai/ha A-1 50, B-5 1066, C-11 655, height 2-8 cm, water volume 140 l/ha",0%
same,% Herbicidal activity,"DIGSA; 21 DAT, g ai/ha A-1 50, B-5 1066, height 2-8 cm, water volume 140 l/ha",0%
same,% Herbicidal activity,"DIGSA; Example 6, 7 DAT, g ai/ha A-1 12.5, B-5 1066, C-11 400, growth stage 21-22, height 15-20 cm",20%
same,% Herbicidal activity,"DIGSA; Example 6, 21 DAT, g ai/ha A-1 12.5, B-5 1066, C-11 400, growth stage 21-22, height 15-20 cm",20%
